Results from patent US6506800B2, “1,4 diaryl-2,3-difluoro-2-butene insecticidal and acaricidal agents” (BASF Aktiengesellschaft, priority 2000, dated 2003).

What was measured:
Format in all cases: in vivo
[1] = tested on: Heliothis virenscens, 3rd instar tobacco budworm (TBW); experiment: Tobacco budworm (TBW) cotton cotyledon dip test; parameters: key: 0 = no effect; 1 = 10-25% kill; 2 = 26-35% kill; 3 = 36-45% kill; 4 = 46-55% kill; 5 = 56-65% kill; 6 = 66-75% kill; 7 = 76-85% kill; 8 = 86-99% kill; 9 = 100% kill; settings: 3 days, kill rating 0-9
Description: (§1) Test solutions are prepared by dissolving the test compound in a 35% acetone in water mixture to give a concentration of 10000 ppm. Subsequent dilutions are made with water as needed.
Heliothis virenscens, 3rd instar tobacco budworm (TBW)
Cotton cotyledons are dipped in the test solution and allowed to dry in a hood. When dry, each is cut into quarters and ten sections are placed individually in 30 ml plastic medicine cups containing a 5 to 7 mm long piece of damp dental wick. One 3rd instar caterpillar is added to each cup and a cardboard lid placed on the cup. Treatments are maintained for 3 days before mortality counts and estimates of reduction in feeding damage are made.

[2] = tested on: Diabrotica virgifera virgifera Leconte, 3rd instar western corn rootworm (WCR); experiment: Western corn rootworm (WCR) soil test; settings: 1.25 mg active ingredient per jar in soil (approx. 50 kg/ha), 5 days, kill rating 0-9
Description: Diabrotica virgifera virgifera Leconte, 3rd instar western corn rootworm (WCR) One ccm of fine talc is placed in a 30 ml wide-mouth screw-top glass jar. One ml of the appropriate acetone test solution is pipetted onto the talc so as to provide 1.25 mg of active ingredient per jar. The jars are set under a gentle air flow until the acetone is evaporated. The dried talc is loosened, 1 ccm of millet seed is added to serve as food for the insects and 25 ml of moist soil is added to each jar. The jar is capped and the contents thoroughly mixed mechanically. Following this, ten 3rd instar rootworms are added to each jar and the jars are loosely capped to allow air exchange for the larvae. The treatments are held for 5 days when mortality counts are made. Missing larvae are presumed dead, since they decompose rapidly and cannot be found. The concentrations of active ingredient used in this test correspond approximately to 50 kg/ha.

[3] = tested on: Aphis fabae, mixed instar, bean aphid (BA); experiment: Bean aphid (BA) spray test on nasturtium; parameters: key: 0 = no effect; 1 = 10-25% kill; 2 = 26-35% kill; 3 = 36-45% kill; 4 = 46-55% kill; 5 = 56-65% kill; 6 = 66-75% kill; 7 = 76-85% kill; 8 = 86-99% kill; 9 = 100% kill; settings: spray on infested nasturtium plants, 2 days, kill rating 0-9
Description: Test solutions are prepared by dissolving the test compound in a 35% acetone in water mixture to give a concentration of 10000 ppm. Subsequent dilutions are made with water as needed. Aphis fabae, mixed instar, bean aphid (BA) Pots containing single nasturtium plants (Tropaeolum sp.) about 5 cm tall are infested with about 100-200 aphids one day before the test. Each pot is sprayed with the test solution for 2 revolutions of a 4 rounds per minute (rpm) turntable in a hood. The spray is directed to give complete coverage of the plants and aphids. The sprayed pots are set on their sides on white trays and held for 2 days, following which mortality estimates are made.

[4] = tested on: Tetranychus urticae (OP-resistant strain), 2-spotted spider mite (TSM); experiment: 2-spotted spider mite (TSM) plant dip test; parameters: key: 0 = no effect; 1 = 10-25% kill; 2 = 26-35% kill; 3 = 36-45% kill; 4 = 46-55% kill; 5 = 56-65% kill; 6 = 66-75% kill; 7 = 76-85% kill; 8 = 86-99% kill; 9 = 100% kill; settings: dip of infested lima bean plants, 2 days, kill rating 0-9
Description: as §1
Tetranychus urticae (OP-resistant strain), 2-spotted spider mite (TSM)
Sieva lima bean plants with primary leaves expanded to 7-8 cm are selected and cut back to one plant per pot. A small piece is cut from an infested leaf taken from the main colony and placed on each leaf of the test plants. This is done about 2 hours before treatment to allow the mites to move over to the test plant to lay eggs. By the size of the cut, infested leaf is varied to obtain about 100 mites per leaf. At the time of test treatment, the piece of leaf used to transfer the mites is removed and discarded. The newly-infested plants are dipped in the test solution for 3 seconds with agitation and set in the hood to dry. After 2 days, one leaf is removed and mortality counts are made.

[5] = tested on: Spodoptera eridania, 3rd instar larvae, southern armyworm (SAW); experiment: Southern armyworm (SAW) leaf-dip test; settings: lima bean leaf dip, after 5 days, kill rating 0-9
Description: as §1
Spodoptera eridania, 3rd instar larvae, southern armyworm (SAW)
A Sieva lima bean leaf expanded to 7-8 cm in length is dipped in the test solution with agitation for 3 seconds and allowed to dry in a hood. The leaf is then placed in a 100×10 mm petri dish containing a damp filter paper on the bottom and ten 3rd instar caterpillars. After 5 days, observations are made of mortality, reduced feeding, or any interference with normal molting.

Row | SMILES | TBW (100 ppm) rating [1] | WCR (50 ppm) rating [2] | BA (100 ppm) rating [3] | TSM (100 ppm) rating [4] | SAW (100 ppm) rating [5]
1 | COCCC(/C(F)=C(\F)Cc1cccc(Oc2ccccc2)c1)c1ccc(Cl)cc1 (centres unmarked) [Compound 1, 1-[(2E)-4-(4-chlorophenyl)-2,3-difluoro-6-methoxy-2-hexenyl]-3-phenoxybenzene] | 0 | 8 (8 = 86-99% kill) | 2 (2 = 26-35% kill) | 0 | 9 (9 = 100% kill)
2 | C=CCC(/C(F)=C(\F)Cc1cccc(Oc2ccccc2)c1)c1ccc(Cl)cc1 (centres unmarked) [Compound 2, 1[(2E)-4-(4-chlorophenyl)-2,3-difluoro-2,6-heptadienyl]-3-phenoxybenzene] | 9 (9 = 100% kill) | 9 (9 = 100% kill) | 9 (9 = 100% kill) | 0 | 9 (9 = 100% kill)
3 | C=CC(/C(F)=C(\F)Cc1cccc(Oc2ccccc2)c1)c1ccc(Cl)cc1 (centres unmarked) [Compound 3, 1-[(2E)-4-(4-chlorophenyl)-2,3-difluoro-2,5-hexadienyl]-3-phenoxybenzene] | 9 (9 = 100% kill) | 9 (9 = 100% kill) | 9 (9 = 100% kill) | 0 | 9 (9 = 100% kill)
4 | COCCC(/C(F)=C(\F)Cc1ccc(F)c(Oc2ccccc2)c1)c1ccc(Cl)cc1 (centres unmarked) [Compound 4, 4-[(2E)-4-(4-chlorophenyl)-2,3-difluoro-6-methoxy-2-hexenyl]-1-fluoro-2-phenoxybenzene] | 9 (9 = 100% kill) | 9 (9 = 100% kill) | 0 | 0 | 9 (9 = 100% kill)
